Reference: US20040024024A1, “Aromatic sulfone hydroxamates and their use as protease inhibitors” (priority 2001, published 2004)

Key:
Experiment in all cases: In vitro MMP inhibition, Ki determination (fluorogenic substrate II)
Assay type in all cases: biochemical
Human recombinant MMP-14 = molecular target: T1, Human recombinant MMP-14 (Homo sapiens, UniProt P50281)
T1 construct: The catalytic domain enzyme was expressed in E. coli inclusion bodies, solubilized in urea; made in house
Procedure: (§1) Several hydroxamates and salts thereof were analyzed in in vitro assays to determine their ability to inhibit the MMP cleavage of peptide substrates. Inhibition (Ki) and IC50 constants were calculated from the assayed hydroxamate-MMP interactions.
(§2) Human recombinant MMP-1, MMP-2, MMP-9, MMP-13, and MMP-14 were used in this assay. All enzymes were prepared in Assignee's laboratories following usual laboratory procedures. Protocols for the preparation and use of these enzymes are available in the scientific literature. See, e.g., Enzyme Nomenclature (Academic Press, San Diego, Calif., 1992) (and the citations therein). See also, Frije et al., J. Biol. Chem., 26(24), 16766-73 (1994).
The MMP-14 full length cDNA was provided by Dr. Gregory Goldberg of Washington University (St. Louis, Mo.). The catalytic domain enzyme was expressed in E. coli inclusion bodies, solubilized in urea, purified on a preparative […] reverse phase HPLC column, and then refolded in the presence of zinc acetate and purified for use.
(§3) All MMPs were activated using 4-aminophenylmercuric acetate (“APMA”, Sigma Chemical, St. Louis, Mo.) or trypsin. MMP-9 also was activated using human recombinant MMP-3 (purified in Assignee's laboratory following standard cloning and purification techniques).
(§4) Two fluorogenic, methoxycoumarin-containing polypeptide substrates were used in the MMP inhibition assays:
(§5) MCA-ArgProLeuGlyLeuDpaAlaArgGluArgNH2 (II)
(§6) Here, “Dpa” is 3-(2,4-dinitrophenyl)-L-2,3-diaminopropionyl group, and “MCA” is 7-methoxycoumarin-4-yl acetyl. Substrate (I) was purchased from Baychem (Redwood City, Calif.), and substrate II was prepared Assignee's laboratory. Substrate I was used in the IC50 determination assays, while substrate II was used in the Ki determination assays. In the absence of MMP inhibitory activity, either substrate is cleaved at the Gly-Leu peptide bond. This cleavage separates the highly fluorogenic peptide from the 2,4-dinitrophenyl quencher, thus resulting in increase of fluorescent intensity.
(§7) The stock solutions of the assayed hydroxamates (or salts thereof) were prepared in 1% dimethyl sulfoxide (DMSO). These stock solutions were diluted in Buffer A (100 mM Tris-HCl, 100 mM NaCl, 10 mM CaCl2, 0.05% polyoxyethylene 23 lauryl ether, pH 7.5) to obtain solutions with different hydroxamate concentrations, i.e., assay solutions with different concentrations of the assayed MMP inhibitory compound. The experiment controls contained the same amount of Buffer A/DMSO as the assayed sample, but contained no hydroxamate (or salt thereof).
(§8) The assays from which the Ki determinations were made were performed as follows. The assayed hydroxamate samples were incubated in separate wells of untreated white polystyrene plates (Nunc Nalgene International, Rochester, N.Y.), and analyzed on a Tecan SpectraFlour Plus plate reader. The excitation wavelength was 330 nm, and the emission wavelength—420 nm. All samples (assayed hydroxamates and controls) were incubated in separate plate wells at room temperature for 1 hr in the presence of 4 μM of MMP substrate (II). In the absence of MMP inhibitory activity, substrate II was cleaved at the Gly-Leu bond resulting in an increase of relative fluorescence. Inhibition was observed as a reduced rate of this increase in relative fluorescence. The various hydroxamates were analyzed using a single low enzyme concentration with a single substrate concentration fixed at or below the Km. This protocol is a modification of method by Knight et al., FEBS Lett., 296(3), 263-266 (1992). Apparent inhibitory constants were determined by non-linear regression of reaction velocity as a function of inhibitor and enzyme concentration using Morrison's equation, as described by Kuzmic, Anal. Biochem. 286, 45-50 (2000). Modifications were made in the non-linear regression method to allow a common control reaction rate and effective enzyme concentration to be shared between all dose-response relationships on a given assay plate. […]

Human recombinant MMP-13 = molecular target: T2, Human recombinant MMP-13 (Homo sapiens, UniProt P45452)
T2 construct: made in house; host or cells: baculovirus / insect cells
Procedure: as §1, §2
The expressed proenzyme was first purified over a heparin agarose column, and then over a chelating zinc chloride column. The proenzyme was then activated by APMA for use in the assay. Further details on baculovirus expression systems may be found in, for example, Luckow et al., J. Virol., 67, 4566-79 (1993). See also, O'Reilly et al, Baculovirus Expression Vectors: A Laboratory Manual (W. H. Freeman and Co., New York, N.Y., 1992). See also, King et al., The Baculovirus Expression System: A Laboratory Guide (Chapman & Hall, London, England, 1992).
as §3, §4, §5, §6, §7
as §8, with “(2000).” for “(2000). Modifications were made in the non-linear regression method to allow a common control reaction rate and effective enzyme concentration to be shared between all dose-response relationships on a given assay plate.”

Human recombinant MMP-1 = molecular target: T3, Human recombinant MMP-1 (Homo sapiens, UniProt P03956)
T3 construct: made in house; host or cells: MMP-1-transfected HT-1080 cells (spent media)
T3 sequence (P03956 100-469): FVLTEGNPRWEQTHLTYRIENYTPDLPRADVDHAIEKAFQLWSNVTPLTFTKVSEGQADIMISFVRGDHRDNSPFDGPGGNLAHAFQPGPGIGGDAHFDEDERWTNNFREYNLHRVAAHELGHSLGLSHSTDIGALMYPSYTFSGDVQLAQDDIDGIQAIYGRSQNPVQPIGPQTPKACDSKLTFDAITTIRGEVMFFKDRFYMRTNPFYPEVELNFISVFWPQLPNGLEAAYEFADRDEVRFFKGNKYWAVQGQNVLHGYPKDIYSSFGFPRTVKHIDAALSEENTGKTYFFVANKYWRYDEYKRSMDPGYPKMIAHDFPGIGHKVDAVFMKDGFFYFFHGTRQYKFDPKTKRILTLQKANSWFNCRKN
Procedure: as §1, §2
The MMP-1 proenzyme was purified from the spent media of MMP-1-transfected HT-1080 cells provided by Dr. Harold Welgus of Washington University (St. Louis, Mo.). The protein was purified on a zinc chelating column.
as §3, §4, §5, §6, §7, §8

Row | SMILES | Ki (Human recombinant MMP-14; value in parenthesis) [nM] | Ki (Human recombinant MMP-13; value in parenthesis) [nM] | Ki (Human recombinant MMP-1; value in parenthesis) [nM] | Ki (Human recombinant MMP-14; value in parentheses) [nM] | Ki (Human recombinant MMP-13; value in parentheses) [nM] | Ki (Human recombinant MMP-1; value in parentheses) [nM]
1 | O=C(NO)C1(S(=O)(=O)c2ccc(OCCCc3ccnc(-c4ccccc4)c3)cc2)CCOCC1 [Example 197] | > 10000 | 0.37 | > 10000 | – | – | –
2 | O=C(CCCc1ccc(S(=O)(=O)C2(C(=O)NO)CCOCC2)cc1)c1cccc(-c2ccccc2)c1 [Example 219] | 7940 | 0.355 | 5600 | – | – | –
3 | O=C(CCCOc1ccc(S(=O)(=O)C2(C(=O)NO)CCOCC2)cc1)Nc1ccc(OC(F)(F)F)cc1 [Example 228] | 6290 | 0.324 | 3940 | – | – | –
4 | Cc1cc(OC(F)(F)F)ccc1NC(=O)CCCOc1ccc(S(=O)(=O)C2(C(=O)NO)CCOCC2)cc1 [Example 229] | 7870 | 0.27 | 955 | – | – | –
5 | COc1ccc(/C(C#N)=C/CCCOc2ccc(S(=O)(=O)C3(C(=O)NO)CCN(C4CC4)CC3)cc2)cc1 [Example 233] | > 10000 | 0.137 | > 10000 | – | – | –
6 | CN(C(=O)CCCOc1ccc(S(=O)(=O)C2(C(=O)NO)CCOCC2)cc1)c1ccc(OC(F)(F)F)cc1 [Example 249] | > 10000 | 1.49 | > 10000 | – | – | –
7 | O=C(CCCOc1ccc(S(=O)(=O)C2(C(=O)NO)CCOCC2)cc1)Nc1ccc(OC(F)(F)F)cc1 [Example 250] | 1700 | 0.127 | 1440 | – | – | –
8 | Cc1cc(NC(=O)CCCOc2ccc(S(=O)(=O)C3(C(=O)NO)CCOCC3)cc2)ccc1OC(C)C [Example 290] | > 10000 | 0.547 | > 10000 | – | – | –
9 | O=C(NO)C1(S(=O)(=O)c2ccc(OCCCc3cncc(-c4ccc(F)cc4)c3)cc2)CCOCC1 [Example 523] | – | – | – | > 10000 | 0.234 | 3210
10 | O=C(COc1ccc(S(=O)(=O)C2(C(=O)NO)CCOCC2)cc1)c1cccc(-c2ccccc2)c1 [Example 563] | – | – | – | 4400 | 0.7 | > 10000
11 | O=C(CCCOc1ccc(S(=O)(=O)C2(C(=O)NO)CCOCC2)cc1)Nc1cccc(I)c1 [Example 570] | – | – | – | 1360 | 0.142 | 3060
12 | O=C(NO)C1(S(=O)(=O)c2ccc(OCCCc3cccc(-n4ccnc4)c3)cc2)CCOCC1 [Example 574] | – | – | – | 5390 | 1.32 | > 10000
13 | O=C(NO)C1(S(=O)(=O)c2ccc(OCCCc3nc(-c4cccnc4)no3)cc2)CCOCC1 [Example 578] | – | – | – | > 10000 | 1.72 | > 10000
14 | O=C(NO)C1(S(=O)(=O)c2ccc(OCCCc3nc(-c4ccccc4)no3)cc2)CCOCC1 [Example 584] | – | – | – | 6630 | 0.944 | 2760
15 | O=C(NO)C1(S(=O)(=O)c2ccc(OCCCc3cc(-c4ccc(F)cc4F)cs3)cc2)CCOCC1 [Example 587] | – | – | – | 4150 | 1.42 | > 10000
16 | CCN1CCC(C(=O)NO)(S(=O)(=O)c2ccc(OCCCSc3nc4ccccc4s3)cc2)CC1 [Example 591] | – | – | – | 8740 | 0.19 | > 10000
17 | O=C(Cc1csc2ccccc12)NCCOc1ccc(S(=O)(=O)C2(C(=O)NO)CCOCC2)cc1 [Example 596] | – | – | – | 1160 | 0.398 | > 10000
18 | O=C(NO)C1(S(=O)(=O)c2ccc(OCCCc3cc(-c4ccc(OC(F)(F)F)cc4)cs3)cc2)CCOCC1 [Example 608] | – | – | – | > 10000 | 9.34 | > 10000
19 | N#Cc1ccc(-c2cccc(CCCOc3ccc(S(=O)(=O)C4(C(=O)NO)CCOCC4)cc3)c2)cc1 [Example 624] | – | – | – | 7580 | 0.9 | > 10000
20 | O=C(NO)C1(S(=O)(=O)c2ccc(OCCCc3cccc(-c4ccc(C(F)(F)F)cc4)c3)cc2)CCOCC1 [Example 625] | – | – | – | > 10000 | 43.6 | > 10000
21 | O=C(NO)C1(S(=O)(=O)c2ccc(OCCCc3cccc(-c4ccc([N+](=O)[O-])cc4)c3)cc2)CCOCC1 [Example 626] | – | – | – | > 10000 | 7.5 | > 10000
